Where two headings read alike, the source gives them in different places.
Assays:
[1] = cited from earlier work
Caco-2 = details: Apical pH : Basolateral pH 7.4 : 7.4, Passive&Active, cited from earlier work
[2] = Particle size distribution of the APIs (laser diffraction, dry method); format: physicochemical; details: API bulk drug
Experimental: The particle size of the API directly influences the dissolution rate of formulations and the overall bioavailability of the compound, making it a necessary parameter for establishing the PBPK absorption model. To determine the particle size distributions of the APIs employed in the formulation of rivaroxaban, ticagrelor, and PB-201, the bulk drugs used in the corresponding formulations were measured by the dry method with a Malvern Mastersizer laser diffraction size analyzer (Master 2000, Malvern Instruments Limited, Malvern, UK). Each sample was tested once.

[3] = Two-stage biorelevant dissolution (transfer test FaSSGF to FaSSIF); format: physicochemical; details: formulation, gastric to intestinal chamber in vitro
Experimental: Because the solubility of weakly basic water-insoluble compounds is higher in the acidic gastric environment compared to the near-neutral intestinal environment, and that bile salts can enhance the solubility of poorly soluble drugs in the intestine, a two-stage dissolution test was performed to explore the drug transfer process from the stomach to the intestine. The transfer apparatus comprised two USP 2 vessels representing the gastric and intestinal chambers, which are interconnected via a peristaltic pump to simulate first-order gastric emptying dynamics. […] Additional samples in the two-stage dissolution test were analyzed every minute with the same instrument. […]
Precipitation parameters, such as critical supersaturation ratio (CSC) and precipitation rate constant (PRC), were evaluated when precipitation occurs in the neutral intestinal environment after the mixture of solution and undissolved substance is transferred from the gastric chamber in vitro. These parameters were evaluated by fitting the two-stage dissolution profile according to the crystallization kinetics equations [28, 29, 30]. […] The calibrated permeability of drugs, as determined using the Caco-2 Transwell model, was used to represent the permeability of drugs in vivo [31]. […]

CYP3A4 = CYP3A4 intrinsic clearance fitted in PBPK model; details: Fitted to clinical PK profiles
Text: S2. PBPK model development and validation physicochemical parameters for these three model drugs, including protein binding and Blood-to-Plasma (B/P) ratio, were obtained from experimental results, while log P and pKa were estimated based on the molecular formula using Gastro Plus ADMET software (version 10.3, […]
S2.1. Rivaroxaban PBPK model development and validation
S2.1.1. Rivaroxaban PBPK model development for metabolism and elimination module Given that the metabolic fractions of CYP3A4 and CYP2J2 to the systemic clearance of rivaroxaban were approximately 18% and 14% [1], respectively, and liver hydrolases contributed to about 14% of its systemic clearance, CLint_CYP3A4, CLint_CYP2J2 and CLHLM were fitted according to the metabolic fraction of rivaroxaban in vivo and concentration-time profiles from the SAD clinical trial in Caucasian subjects under fasted state. Considering that rivaroxaban was a substrate of P-gp transporter, and that about 36% and 7% of the parent drug were directly excreted by the kidney and liver, respectively, rivaroxaban may undergo active efflux through the kidney and liver in vivo [2]. Consequently, permeability-limited kidney and liver models were employed to account for the active efflux mechanism of P-gp for rivaroxaban. These models include both passive diffusion and active transport.
Clearances for passive diffusion in the kidney and liver was calculated using Equation S1 [5] and Equation S2 [6], respectively.
CL௉஽,௜ =2×P௔௣௣ × TSA௜ ሺS1ሻ where CLPD,i is the passive diffusion clearance of the drug in compartment i, Papp is the apparent permeability of the drug, and the TSAi is the regional tubular surface area of compartment i.
Log CL௉஽ =0.82×logD଻.ସ +0.5 ሺS2ሻ where CLPD is the passive diffusional clearance of APIs in the liver, and log D 7.4 is the oil-water partition coefficient at pH 7.4 [6] […]
Blood-to-plasma partition ratio 0.714 Measured
Fraction unbound in plasma 0.065 Measured […]
Caco-2(10-6cm/s) (Rivaroxaban) 8.103 Measured […]

Structure (SMILES) | Fraction unbound in plasma ([1]; rivaroxaban, supplement ref 2) | Blood-to-plasma partition ratio ([1]; rivaroxaban, supplement ref 7) | Caco-2 permeability (Caco-2; supplement ref 4) | D (0.1) [2] [μm] | D (0.5) [2] [μm] | D (0.9) [2] [μm] | behaviour after transfer from FaSSGF to FaSSIF [3] | Intrinsic clearance of CYP 3A4 (CYP3A4) [µL/min/pmol] | Blood-to-plasma partition ratio ([1]; ticagrelor, supplement ref 18) | Fraction unbound in plasma ([1]; ticagrelor, supplement ref 18) | Caco-2 permeability (Caco-2; supplement ref 19)
O=C(NC[C@H]1CN(c2ccc(N3CCOCC3=O)cc2)C(=O)O1)c1ccc(Cl)s1 [Rivaroxaban] | 0.065 | 0.714 | 8.103 10-6cm/s | 3.809 | 7.955 | 15.532 | continued to dissolve | 0.027 |  |  | 
CCCSc1nc(N[C@@H]2C[C@H]2c2ccc(F)c(F)c2)c2nnn([C@@H]3C[C@H](OCCO)[C@@H](O)[C@H]3O)c2n1 [Ticagrelor] |  |  |  | 3.045 | 6.926 | 13.605 | continued to dissolve | 5.00 | 0.592 | 0.006 | 6.0 10-6cm/s

Reference: publication PMC11511194, “Key Factors for Improving Predictive Accuracy and Avoiding Overparameterization of the PBPK Absorption Model in Food Effect Studies of Weakly Basic Water-Insoluble Compounds in Immediate Release Formulations” (Pharmaceutics, 2024)
